Experimental data: ChEMBL document CHEMBL1201862, “PubChem BioAssay data set” (2004)
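Compound exposure: 48 hours, 5 concentrations, 96-well plates. GI50 = concentration required for 50% inhibition of growth.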 Active and inactive are the calls of the source. No stated cut-off is given here; in the data, active = GI50 up to about 1.1 µM and inactive = higher.

How the values were obtained:
Assay in all cases: NCI tumour cell line growth inhibition, 48 h
NCI/ADR-RES = test system: NCI/ADR-RES
U-251 = test system: U-251
SK-MEL-28 = test system: SK-MEL-28
SK-MEL-5 = test system: SK-MEL-5
HOP-62 = test system: HOP-62
RXF 393 = test system: RXF 393
M14 = test system: M14
DU-145 = test system: DU-145
SF-295 = test system: SF-295
SF-268 = test system: SF-268
HCT-15 = test system: HCT-15
OVCAR-3 = test system: OVCAR-3
K562 = test system: K562
MOLT-4 = test system: MOLT-4
NCI-H23 = test system: NCI-H23
SW-620 = test system: SW-620
NCI-H460 = test system: NCI-H460
HT-29 = test system: HT-29
COLO 205 = test system: COLO 205
T47D = test system: T47D
LOX IMVI = test system: LOX IMVI
PC-3 = test system: PC-3
SN12C = test system: SN12C
A498 = test system: A498
NCI-H522 = test system: NCI-H522
SNB-75 = test system: SNB-75
HL-60 = test system: HL-60
CCRF-CEM = test system: CCRF-CEM
MCF7 = test system: MCF7
UO-31 = test system: UO-31
IGROV-1 = test system: IGROV-1
UACC-62 = test system: UACC-62
SF-539 = test system: SF-539
Hs-578T = test system: Hs-578T
SR = test system: SR
SK-MEL-2 = test system: SK-MEL-2
OVCAR-5 = test system: OVCAR-5
ACHN = test system: ACHN
OVCAR-4 = test system: OVCAR-4
HCC 2998 = test system: HCC 2998
KM12 = test system: KM12
SNB-19 = test system: SNB-19
786-0 = test system: 786-0
MDA-MB-231 = test system: MDA-MB-231
SK-OV-3 = test system: SK-OV-3
Malme-3M = test system: Malme-3M
CAKI-1 = test system: CAKI-1
NCI-H226 = test system: NCI-H226
MDA-N = test system: MDA-N
HCT-116 = test system: HCT-116
A549 = test system: A549
OVCAR-8 = test system: OVCAR-8
MDA-MB-435 = test system: MDA-MB-435
EKVX = test system: EKVX
RPMI-8226 = test system: RPMI-8226
TK-10 = test system: TK-10
HOP-92 = test system: HOP-92

O=C1NC(c2cccc3ccccc23)Nc2ccc(Cl)cc21 (stereo unspecified)
GI50 (NCI/ADR-RES): 0.00111 µM (active) | GI50 (U-251): 0.000977 µM (active) | GI50 (SK-MEL-28): < 0.01 µM (active) | GI50 (SK-MEL-5): 0.00106 µM (active) | GI50 (HOP-62): 0.00261 µM (active) | GI50 (RXF 393): 0.00394 µM (active) | GI50 (M14): 0.00115 µM (active) | GI50 (DU-145): 0.00452 µM (active) | GI50 (SF-295): 0.000516 µM (active) | GI50 (SF-268): 0.0035 µM (active) | GI50 (HCT-15): 0.0018 µM | GI50 (OVCAR-3): 0.0016 µM (active) | GI50 (K562): < 0.0001 µM (active) | GI50 (MOLT-4): 0.00174 µM (active) | GI50 (NCI-H23): 0.0579 µM (active) | GI50 (SW-620): 0.00168 µM (active) | GI50 (NCI-H460): 0.0038 µM (active) | GI50 (HT-29): 0.00166 µM (active) | GI50 (COLO 205): 0.00239 µM (active) | GI50 (T47D): 20.5 µM (inactive) | GI50 (LOX IMVI): 0.000482 µM (active) | GI50 (PC-3): 0.00165 µM (active) | GI50 (SN12C): 0.00828 µM (active) | GI50 (A498): 0.00143 µM (active) | GI50 (NCI-H522): 0.000546 µM (active) | GI50 (SNB-75): 0.000164 µM (active) | GI50 (HL-60): 0.000133 µM (active) | GI50 (CCRF-CEM): 0.000618 µM (active) | GI50 (MCF7): 0.0741 µM (active) | GI50 (UO-31): 0.00319 µM (active) | GI50 (IGROV-1): 0.0181 µM (active) | GI50 (UACC-62): 0.000214 µM (active) | GI50 (SF-539): < 0.01 µM (active) | GI50 (Hs-578T): 0.000624 µM (active) | GI50 (SR): 0.000229 µM (active) | GI50 (SK-MEL-2): 0.00204 µM (active) | GI50 (OVCAR-5): 0.0244 µM (active) | GI50 (ACHN): 0.00268 µM (active) | GI50 (OVCAR-4): 0.327 µM (active) | GI50 (HCC 2998): 0.0105 µM (active) | GI50 (KM12): 0.0022 µM (active) | GI50 (SNB-19): 0.00189 µM (active) | GI50 (786-0): 0.00193 µM (active) | GI50 (MDA-MB-231): 0.00838 µM (active) | GI50 (SK-OV-3): 0.00105 µM (active) | GI50 (Malme-3M): 0.00176 µM (active) | GI50 (CAKI-1): 0.00118 µM (active) | GI50 (NCI-H226): 0.00432 µM (active) | GI50 (MDA-N): < 0.0001 µM (active) | GI50 (HCT-116): 0.000912 µM (active) | GI50 (A549): 0.00509 µM (active) | GI50 (OVCAR-8): 0.00935 µM (active) | GI50 (MDA-MB-435): < 0.0001 µM (active) | GI50 (EKVX): 0.00235 µM (active)

Cc1ccc(NC2=NCCO2)c2c1CCC2
GI50 (NCI/ADR-RES): 20.4 µM (inactive) | GI50 (U-251): 39.4 µM (inactive) | GI50 (SK-MEL-28): 32.8 µM (inactive) | GI50 (SK-MEL-5): 17.5 µM (inactive) | GI50 (RPMI-8226): 34.8 µM (inactive) | GI50 (HOP-62): 27.9 µM (inactive) | GI50 (RXF 393): 26.8 µM (inactive) | GI50 (TK-10): > 100 µM (inactive) | GI50 (M14): 21 µM (inactive) | GI50 (DU-145): 63.2 µM (inactive) | GI50 (SF-295): > 100 µM (inactive) | GI50 (SF-268): 41.8 µM (inactive) | GI50 (HCT-15): 44.2 µM | GI50 (OVCAR-3): 21.6 µM (inactive) | GI50 (K562): 26.7 µM (inactive) | GI50 (MOLT-4): 33.9 µM (inactive) | GI50 (NCI-H23): 32.2 µM (inactive) | GI50 (SW-620): 46.9 µM (inactive) | GI50 (NCI-H460): 27.5 µM (inactive) | GI50 (HT-29): 33.3 µM (inactive) | GI50 (COLO 205): 23.6 µM (inactive) | GI50 (T47D): 51.3 µM (inactive) | GI50 (LOX IMVI): 22.8 µM (inactive) | GI50 (PC-3): 25.4 µM (inactive) | GI50 (SN12C): 45 µM (inactive) | GI50 (A498): 41.6 µM (inactive) | GI50 (HOP-92): 27.3 µM (inactive) | GI50 (NCI-H522): 45.8 µM (inactive) | GI50 (SNB-75): 32.9 µM (inactive) | GI50 (HL-60): 16.7 µM (inactive) | GI50 (CCRF-CEM): 37.2 µM (inactive) | GI50 (MCF7): 31.8 µM (inactive) | GI50 (UO-31): > 100 µM (inactive) | GI50 (IGROV-1): 40 µM (inactive) | GI50 (UACC-62): 30.7 µM (inactive) | GI50 (SF-539): 22 µM (inactive) | GI50 (Hs-578T): 22.9 µM (inactive) | GI50 (SR): 22.1 µM (inactive) | GI50 (SK-MEL-2): 20 µM (inactive) | GI50 (OVCAR-5): 26 µM (inactive) | GI50 (ACHN): 85.3 µM (inactive) | GI50 (OVCAR-4): 48.9 µM (inactive) | GI50 (HCC 2998): 32 µM (inactive) | GI50 (KM12): 30.3 µM (inactive) | GI50 (SNB-19): 58.9 µM (inactive) | GI50 (786-0): 56 µM (inactive) | GI50 (MDA-MB-231): 19.7 µM (inactive) | GI50 (SK-OV-3): 41.5 µM (inactive) | GI50 (Malme-3M): 27.8 µM (inactive) | GI50 (CAKI-1): > 100 µM (inactive) | GI50 (NCI-H226): 32.4 µM (inactive) | GI50 (MDA-N): 17.6 µM (inactive) | GI50 (HCT-116): 15.3 µM (inactive) | GI50 (A549): 41.7 µM (inactive) | GI50 (OVCAR-8): 35.1 µM (inactive) | GI50 (MDA-MB-435): 20.5 µM (inactive) | GI50 (EKVX): 48.4 µM (inactive)
